Measured values from ChEMBL document CHEMBL5537164, “Discovery of Potent, Orally Bioavailable, Tricyclic NLRP3 Inhibitors” (J Med Chem, 2024).
In brackets after ≈: the same amount, converted by molar mass.

Legend:
[1] = Equilibrium solubility of compound in DMSO at pH 6.8 by shake flask method; type: physicochemical
[2] = Metabolic stability in human liver microsomes assessed as intrinsic clearance; type: ADME, Microsome; conditions: read-out: CLH
[3] = Apparent permeability from apical to basolateral side in MDCK cells by high-throughput assay; type: ADME, cell-based, Canis lupus familiaris; conditions: dog
[4] = molecular target: Nuclear factor NF-kappa-B complex (Homo sapiens, UniProt P19838+Q00653+Q04206); assay: Inhibition of NF-kappaB in PMA-differentiated human THP-1 cells assessed as reduction in TNF-alpha release preincubated with compound for 1 hrs followed by Pam3CSK4 stimulation and measured after 3 hrs by HTRF assay; type: cell-based
Sequence of Nuclear factor NF-kappa-B complex (P19838 1-433 limits assumed): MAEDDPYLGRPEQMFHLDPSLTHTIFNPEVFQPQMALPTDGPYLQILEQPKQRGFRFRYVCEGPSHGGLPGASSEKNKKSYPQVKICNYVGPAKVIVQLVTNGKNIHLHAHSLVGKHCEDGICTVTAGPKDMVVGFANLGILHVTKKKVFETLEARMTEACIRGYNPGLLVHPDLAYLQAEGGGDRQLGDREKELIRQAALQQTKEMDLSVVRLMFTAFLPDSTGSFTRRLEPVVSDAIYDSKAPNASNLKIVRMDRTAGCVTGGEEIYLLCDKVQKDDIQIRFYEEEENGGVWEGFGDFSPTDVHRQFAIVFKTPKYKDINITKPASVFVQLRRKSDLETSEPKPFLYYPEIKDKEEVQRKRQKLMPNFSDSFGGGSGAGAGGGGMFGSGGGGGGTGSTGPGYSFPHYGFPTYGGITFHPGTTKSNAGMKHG
Sequence of Nuclear factor NF-kappa-B complex (Q00653 1-454 limits assumed): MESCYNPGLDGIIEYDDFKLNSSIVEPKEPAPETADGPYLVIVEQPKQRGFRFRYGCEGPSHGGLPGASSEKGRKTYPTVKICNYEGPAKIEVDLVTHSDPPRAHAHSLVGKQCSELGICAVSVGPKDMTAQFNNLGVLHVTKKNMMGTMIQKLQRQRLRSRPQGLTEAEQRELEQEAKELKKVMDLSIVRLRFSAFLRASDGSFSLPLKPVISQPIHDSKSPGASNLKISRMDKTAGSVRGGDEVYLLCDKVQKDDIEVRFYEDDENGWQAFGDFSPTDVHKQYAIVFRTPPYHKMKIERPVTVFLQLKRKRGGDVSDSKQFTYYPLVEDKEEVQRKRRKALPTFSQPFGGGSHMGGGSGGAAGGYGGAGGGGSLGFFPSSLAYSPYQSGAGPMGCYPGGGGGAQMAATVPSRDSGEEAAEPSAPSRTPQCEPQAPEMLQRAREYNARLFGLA
Sequence of Nuclear factor NF-kappa-B complex (Q04206 whole entry): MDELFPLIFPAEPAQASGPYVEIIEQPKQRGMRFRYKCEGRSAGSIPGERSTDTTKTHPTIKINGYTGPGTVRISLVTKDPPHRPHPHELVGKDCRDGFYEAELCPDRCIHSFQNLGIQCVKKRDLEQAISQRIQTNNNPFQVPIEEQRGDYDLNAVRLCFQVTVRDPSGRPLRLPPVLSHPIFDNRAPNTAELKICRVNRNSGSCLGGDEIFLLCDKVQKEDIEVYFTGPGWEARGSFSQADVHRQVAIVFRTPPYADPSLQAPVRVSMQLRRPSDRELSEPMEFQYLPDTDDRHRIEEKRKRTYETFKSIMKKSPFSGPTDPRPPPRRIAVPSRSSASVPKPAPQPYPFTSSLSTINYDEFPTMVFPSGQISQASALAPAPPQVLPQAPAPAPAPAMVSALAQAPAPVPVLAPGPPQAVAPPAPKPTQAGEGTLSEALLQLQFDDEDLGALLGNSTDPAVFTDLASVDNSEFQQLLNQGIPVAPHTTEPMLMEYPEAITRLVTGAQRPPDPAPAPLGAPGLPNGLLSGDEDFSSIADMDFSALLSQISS

[5] = Lipophilicity, logD of compound at pH 7.4; type: physicochemical; conditions: buffer
[6] = Metabolic stability in mouse liver microsomes assessed as intrinsic clearance; type: ADME, Microsome; conditions: read-out: CLH
[7] = Clearance in C57BL/6 mouse at 1 mg/kg, iv measured after 24 hrs by LC-MS/MS analysis; type: ADME, organism-based; conditions: in vivo
[8] = Oral bioavailability in C57BL/6 mouse measured after 24 hrs by LC-MS/MS analysis; type: ADME, organism-based; conditions: in vivo
[9] = AUC (0 to infinity) in C57BL/6 mouse at 3 mg/kg, po measured after 24 hrs by LC-MS/MS analysis; type: ADME, organism-based; conditions: in vivo
[10] = molecular target: Voltage-gated inwardly rectifying potassium channel KCNH2 (Homo sapiens, UniProt Q12809); assay: Displacement of [3H]-dofetilide from human ERG; type: toxicity
Sequence of Voltage-gated inwardly rectifying potassium channel KCNH2 (Q12809 whole entry): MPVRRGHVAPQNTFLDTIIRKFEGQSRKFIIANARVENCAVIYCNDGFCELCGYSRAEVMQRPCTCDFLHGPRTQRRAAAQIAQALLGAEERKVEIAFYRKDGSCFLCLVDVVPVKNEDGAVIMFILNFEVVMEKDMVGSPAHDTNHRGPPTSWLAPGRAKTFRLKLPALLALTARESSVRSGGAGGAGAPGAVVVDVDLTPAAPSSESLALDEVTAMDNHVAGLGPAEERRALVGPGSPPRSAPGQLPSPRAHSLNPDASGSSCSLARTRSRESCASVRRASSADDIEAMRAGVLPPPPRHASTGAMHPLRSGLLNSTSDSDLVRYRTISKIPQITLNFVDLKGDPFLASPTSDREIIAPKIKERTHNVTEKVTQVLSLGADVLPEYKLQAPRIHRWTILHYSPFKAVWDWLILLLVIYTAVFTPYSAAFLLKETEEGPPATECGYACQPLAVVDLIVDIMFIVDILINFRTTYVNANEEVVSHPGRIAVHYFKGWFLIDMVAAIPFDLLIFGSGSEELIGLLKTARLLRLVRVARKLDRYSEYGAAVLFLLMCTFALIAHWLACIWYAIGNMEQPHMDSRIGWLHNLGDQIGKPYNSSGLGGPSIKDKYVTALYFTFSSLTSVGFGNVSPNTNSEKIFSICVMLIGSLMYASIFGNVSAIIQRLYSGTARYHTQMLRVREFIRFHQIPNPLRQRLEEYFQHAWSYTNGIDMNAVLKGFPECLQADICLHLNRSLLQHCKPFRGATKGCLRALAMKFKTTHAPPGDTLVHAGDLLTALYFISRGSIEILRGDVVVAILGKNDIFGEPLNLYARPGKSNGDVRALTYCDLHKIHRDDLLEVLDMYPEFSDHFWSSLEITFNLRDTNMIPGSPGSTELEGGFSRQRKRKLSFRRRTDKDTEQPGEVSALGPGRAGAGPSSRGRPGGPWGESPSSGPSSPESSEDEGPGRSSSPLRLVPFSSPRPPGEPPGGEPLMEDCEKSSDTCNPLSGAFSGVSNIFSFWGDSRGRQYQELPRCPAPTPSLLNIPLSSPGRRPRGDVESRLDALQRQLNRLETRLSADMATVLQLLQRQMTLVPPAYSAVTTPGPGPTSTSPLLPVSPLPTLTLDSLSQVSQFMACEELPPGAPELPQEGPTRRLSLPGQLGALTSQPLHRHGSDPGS

Cytochrome P450 = assay: Drug metabolism in human liver microsomes assessed as CYP450-driven thiophene oxidation mediated metabolite formation by LC-MS/MS analysis; type: ADME, Microsome
[11] = In vivo inhibition of NLRP3 in LPS/ATP-induced C57BL/6 mouse model of acute peritonitis assessed as reduction in IL-1beta level at 50 mg/kg, po preadministered with compound for 1 hrs followed by LPS stimulation for 2 hrs and measured 15 mins after ATP addition by ELISA relative to control; type: functional; conditions: time 3.25 hrs
[12] = Drug concentration in blood of C57BL/6 mouse model of acute peritonitis at 50 mg/kg, po preadministered with compound for 1 hrs followed by LPS stimulation for 2 hrs and measured 15 mins after ATP addition by HPLC-MS/MS analysis; type: ADME, organism-based; conditions: whole blood, read-out: Ct
[13] = Metabolic stability in rat liver microsomes assessed as intrinsic clearance; type: ADME, Microsome; conditions: read-out: CLH

Compound | solubility [1] | microsomal CLint [2] | Papp A→B [3] | logD [5] | microsomal CLint [6] | also measured
CCc1nn(CC(=O)Nc2cccc(C(C)=O)c2)c(=O)c2cc3sccc3n12 | 4 µM (≈ 1.58 µg/mL) | 299 µL/min/mg | 41 ×10⁻⁶ cm/s | – | – | IC50 [4]: > 100 µM
CCc1nn(CC(=O)N(C)c2ccccc2)c(=O)c2cc3sccc3n12 | 6 µM (≈ 2.2 µg/mL) | 971 µL/min/mg | 19 ×10⁻⁶ cm/s | – | – | –
O=C(Cn1nc(C2CC2)n2c(cc3sccc32)c1=O)Nc1cccnc1 | 26 µM (≈ 9.5 µg/mL) | 76 µL/min/mg | – | 2.7 | 464 µL/min/mg | –
CCc1nn(CC(=O)Nc2cccnc2)c(=O)c2cc3sccc3n12 | 21 µM (≈ 7.42 µg/mL) | 63 µL/min/mg | 27 ×10⁻⁶ cm/s | 2.6 | 412 µL/min/mg | –
CC(C)c1nn(CC(=O)Nc2cccnc2)c(=O)c2cc3sccc3n12 | 19 µM (≈ 6.98 µg/mL) | 144 µL/min/mg | – | 3.1 | 490 µL/min/mg | Drug metabolism (Cytochrome P450): Metabolite_Detected
CCCc1nn(CC(=O)Nc2cccnc2)c(=O)c2cc3sccc3n12 | 3 µM (≈ 1.1 µg/mL) | 101 µL/min/mg | – | 3 | > 1000 µL/min/mg | –
CCc1nn(CC(=O)Nc2ccccc2)c(=O)c2cc3sccc3n12 | 2 µM (≈ 0.705 µg/mL) | 269 µL/min/mg | 25 ×10⁻⁶ cm/s | – | – | –
CC(C)(O)c1nn(CC(=O)Nc2cccnc2)c(=O)c2cc3sccc3n12 | 23 µM (≈ 8.82 µg/mL) | 68 µL/min/mg | – | 2.8 | 300 µL/min/mg | –
CCc1nn(CC(=O)Nc2cccc(O)c2)c(=O)c2cc3sccc3n12 | 4 µM (≈ 1.47 µg/mL) | 405 µL/min/mg | 5.7 ×10⁻⁶ cm/s | – | – | –
CCc1nn(CC(=O)NC2CCCNC2)c(=O)c2cc3sccc3n12 (stereo unspecified) | > 1000 µM | < 10 µL/min/mg | 0.7 ×10⁻⁶ cm/s | -0.2 | 50 µL/min/mg | microsomal CLint [13]: 40 µL/min/mg
CCc1nn(CC(=O)Nc2ccncn2)c(=O)c2cc3sccc3n12 | 7 µM (≈ 2.48 µg/mL) | 69 µL/min/mg | 21 ×10⁻⁶ cm/s | – | – | –
CCc1nn(CC(=O)NC)c(=O)c2cc3sccc3n12 | 128 µM (≈ 37.2 µg/mL) | 54 µL/min/mg | 26 ×10⁻⁶ cm/s | – | – | –
O=C(Cn1ncn2c(cc3sccc32)c1=O)Nc1cccnc1 | 91 µM (≈ 29.6 µg/mL) | < 10 µL/min/mg | – | 1.9 | 48 µL/min/mg | –

More lines, main results first:

solubility [1] | microsomal CLint [2] | Papp A→B [3] | logD [5] | microsomal CLint [6] | Compound | also measured
3 µM (≈ 1.23 µg/mL) | 30 µL/min/mg | – | 3 | 129 µL/min/mg | CC(C)c1nn(CC(=O)NC2CCOCC2)c(=O)c2cc3sc(Cl)cc3n12 | –
10 µM (≈ 4.02 µg/mL) | 44 µL/min/mg | – | 4 | 124 µL/min/mg | CC(C)c1nn(CC(=O)Nc2cccnc2)c(=O)c2cc3sc(Cl)cc3n12 | clearance [7]: 16.5 mL/min/kg; bioavailability [8]: 55%; AUC(0-inf) [9]: 3.75 µM·h
251 µM (≈ 96.7 µg/mL) | 79 µL/min/mg | – | 3.4 | 227 µL/min/mg | CC(C)c1nn(CC(=O)Nc2cccnc2)c(=O)c2cc3sc(F)cc3n12 | –
> 1000 µM | 59 µL/min/mg | 15 ×10⁻⁶ cm/s | 2.4 | 364 µL/min/mg | CC(C)c1nn(CC(=O)N[C@@H]2CCCN(C)C2)c(=O)c2cc3sc(Cl)cc3n12 | clearance [7]: 58 mL/min/kg; bioavailability [8]: 7.8%; AUC(0-inf) [9]: 0.163 µM·h; IC50 [10]: > 30 µM
> 1000 µM | 12 µL/min/mg | 3 ×10⁻⁶ cm/s | 1 | 55 µL/min/mg | CC(C)c1nn(CC(=O)N[C@@H]2CCCNC2)c(=O)c2cc3sc(Cl)cc3n12 | clearance [7]: 55.7 mL/min/kg; bioavailability [8]: 27.6%; AUC(0-inf) [9]: 0.691 µM·h; IC50 [10]: 26 µM
> 1000 µM | 27 µL/min/mg | – | 1.1 | 231 µL/min/mg | CC(C)c1nn(CC(=O)N[C@@H]2CCCN(C)C2)c(=O)c2cc3scnc3n12 | inhibition in vivo at 50 mg/kg [11]: 40%; concentration at 3.25 h [12]: 113 nM
36 µM (≈ 15.3 µg/mL) | < 10 µL/min/mg | – | 2.8 | 33 µL/min/mg | CC(C)(O)c1nn(CC(=O)N[C@H]2C[C@@](C)(O)C2)c(=O)c2cc3sc(Cl)cc3n12 | inhibition in vivo at 50 mg/kg [11]: 30%; concentration at 3.25 h [12]: 65 nM
